Results: patent US5441985A, “Treatment of lower urinary tract disorders with selective norepinephrine uptake inhibitors” (priority 1993, dated 1995)
Where two headings read alike, the source gives them in different places.

Legend:
nocturnal enuresis = details: cited from earlier work; for effectiveness in treating nocturnal enuresis: human, in vivo
[1] = clinical evaluation as potential treatments for depression, side effects
cholinergic receptors [2] = details: read-out: IC50 for displacement of tritiated-quinuclidinol benzoate (QNB) binding, cited from earlier work
guinea pig bladder = details: guinea pig strips in vitro and cystometrogram in vivo; cited from earlier work
dog bladder and urethra = details: cited from earlier work
[3] = test system: rabbit urethra and bladder fragments; test: NE release in rabbit urethra and bladder fragments in vitro
[4] = test system: guinea pig bladder muscle strips; details: guinea pig bladder muscle strips in vitro; cited from earlier work
rabbit bladder strips [5] = details: in the presence of imipramine; cited from earlier work
rabbit bladder = details: cited from earlier work
frog sciatic nerves = frog sciatic nerves in vitro; cited from earlier work
[6] = children under 5 years of age; cited from earlier work
rabbit bladder strips [7] = details: cited from earlier work
human bladder strips = details: cited from earlier work
stress incontinence = details: women with stress incontinence; cited from earlier work
bladder [8] = details: female dogs; cited from earlier work
cat bladder = details: in vivo; cited from earlier work
dog bladder strips [9] = details: cited from earlier work
urethra = details: female dogs; cited from earlier work
rabbit detrusor strips = rabbit detrusor strips in vitro; cited from earlier work
dog bladder strips [10] = details: cited from earlier work; remark: listed apart in the source
[11] = test system: dog bladder muscle strips; details: cited from earlier work
[12] = test system: muscarinic presynaptic receptors; details: rat bladder tissue in vitro; cited from earlier work
[13] = test system: dog urethra and bladder fragments; test: NE release in dog urethra and bladder fragments in vitro
micturition reflex = details: cited from earlier work
[14] = test system: rat urinary bladder strips; details: cited from earlier work
rat bladder tissue = test: relaxation of rat bladder tissue to NE
[15] = human, in vivo
bladder [16] = test: bladder function in the cat; type: in vivo
rat urethral tissue = test: contractile response of rat urethral tissue to NE
cholinergic receptors [17] = test: 3H-QNB ligand displacement assay (in vitro anti-cholinergic assay); type: binding; details: 3H-QNB displacement; read-out: anticholinergic IC50

CNCCC=C1c2ccccc2CCc2ccccc21 [nortriptyline]
effectiveness in treating nocturnal enuresis (nocturnal enuresis): effective

CN(C)CCCN1c2ccccc2CCc2ccccc21 [imipramine]
noted side effect [1]: urine retention
IC50 (cholinergic receptors [2]; bladder homogenates): 13 µM
activity on bladder (guinea pig bladder): anticholinergic, antispasmodic, and local anesthetic activity
bladder and urethral pressure responses to pelvic nerve stimulation and other stimuli (dog bladder and urethra): reduce dog bladder and urethral pressure responses
NE release [3]: increase NE release
potassium-induced contraction [4]: suppression of potassium-induced contraction
effectiveness of calcium to augment bethanechol-induced contraction (rabbit bladder strips [5]): decreased effectiveness of calcium
suppression/inhibition of field stimulated contraction (rabbit bladder; rabbit bladder organ bath): 50%
suppression/relaxation of bethanechol-induced contraction (rabbit bladder; rabbit bladder organ bath): 50%
impulse conduction (frog sciatic nerves): block the impulse conduction
toxicity in children [6]: particularly toxic and potentially lethal in low dosage
contractile responses to acetylcholine (ACH) (rabbit bladder strips [7]): block in vitro contractile responses
contractile responses to acetylcholine (ACH) (human bladder strips): block in vitro contractile responses
restoring continence (stress incontinence): effective as a single therapy
bladder pressure responses to pelvic nerve stimulation (bladder [8]): reduced bladder pressure responses
effects of hypogastric nerve stimulation on bladder relaxation (cat bladder): potentiated the effects of hypogastric nerve stimulation
contractile responses to barium chloride (dog bladder strips [9]): suppressed contractile responses to barium chloride
musculotropic relaxant effect (dog bladder strips [9]; compared with flavoxate): more potent than that of flavoxate
cholinergic contractile responses induced by bethanechol (dog bladder strips [9]; dog bladder strips): suppressed cholinergic contractile responses
urethral pressure (urethra): increase urethral pressure
carbamylcholine and barium chloride-induced contractions (rabbit detrusor strips): antagonize
contractile responses to acetylcholine (ACH) (dog bladder strips [10]): block in vitro contractile responses
relaxation effects of norepinephrine ([11]; with norepinephrine): enhanced the in vitro relaxation effects of norepinephrine
effect on bladder muscle strips alone ([11]; without norepinephrine): no effects alone
further patients with improvements (nocturnal enuresis; following treatment): 15-20%
patients with enuresis cured (nocturnal enuresis; following treatment): over 50%
effect on muscarinic presynaptic receptors [12]: strong antagonistic effect on muscarinic presynaptic receptors
NE release [13]: increase NE release
supraspinal reflex or myogenic activity of bladder (micturition reflex; acute administration): no effect
threshold for activating the bladder-spinal-bladder (vesicovesical) micturition reflex (micturition reflex; acute administration): increased the threshold
threshold for supraspinal reflex (micturition reflex; repeated administration): increased threshold for supraspinal reflex

COc1ccc(CCN(C)CCCC(C#N)(c2ccc(OC)c(OC)c2)C(C)C)cc1OC (centres unmarked) [verapamil]
suppression/inhibition of field stimulated contraction (rabbit bladder): 81%
suppression/relaxation of bethanechol-induced contraction (rabbit bladder; rabbit, bladder): 85%

CC(C)[N+](C)(CCOC(=O)C1c2ccccc2Oc2ccccc21)C(C)C [propantheline]
IC50 (cholinergic receptors [2]; bladder homogenates): 29.5 µM

CN1[C@@H]2CC[C@H]1C[C@@H](OC(=O)C(CO)c1ccccc1)C2 (some centres unmarked) [atropine]
IC50 (cholinergic receptors [2]): 52 µM
potassium-induced contraction [4]: not effect at high concentration
suppression/inhibition of field stimulated contraction (rabbit bladder; rabbit bladder organ bath): 30%
suppression/relaxation of bethanechol-induced contraction (rabbit bladder; rabbit bladder organ bath): 70%

CNCCCN1c2ccccc2CCc2ccccc21 [desipramine]
contractile response to electrical stimulation [14]: suppressed the contractile response
effectiveness in treating nocturnal enuresis (nocturnal enuresis): effective

CNCC[C@@H](Oc1ccccc1C)c1ccccc1 [tomoxetine, (-)-N-methyl-3-(2-methylphenoxy)-3-phenylpropylamine]
relaxation of bladder tissue to NE (rat bladder tissue): augment the relaxation
noted side effect [15]: urine retention
side effects such as dry mouth, drowsiness, and dizziness [15]: considerably fewer side effects
amplitude and frequency of contractions (bladder [16]): decreasing the amplitude and frequency of contractions
bladder capacity (bladder [16]): increasing bladder capacity
NE release [3]: increase NE release
contractile response of urethral tissue to NE (rat urethral tissue): significantly increase the contractile response
IC50 (cholinergic receptors [17]): 21 µM
NE release [13]: increase NE release

CCN(CC)CC(=O)Nc1c(C)cccc1C [lidocaine]
potassium-induced contraction [4]: not effect at high concentration

CN(C)CCC=C1c2ccccc2CCc2ccccc21 [amitriptyline]
contractile response to electrical stimulation [14]: suppressed the contractile response
effectiveness in treating nocturnal enuresis (nocturnal enuresis): effective
